Counter-ions that a name gives are not always drawn.
Key:
Test in all cases: IC50 (viability, PrestoBlue) (log10 nM)
Conditions in all cases: exposure time: 72 h
[1] = tested on: murine gastric organoid diffuse (Cdh1 fl/fl; Apc fl/fl)
How it was run: (§1)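 Murine gastric corpus organoids, either uninduced or Cre-induced (RAS-activated, WNT-activated or diffuse), were broken up mechanically and seeded in 15 μl Matrigel beneath 45 μl medium in 384-well plates pre-spotted with DMSO-diluted compounds at nine final concentrations spanning 6.7 to 25,004 nM. After 72 h of incubation, PrestoBlue was added at 1× final for 3 h at 37°C and fluorescence was read at 560/590 nm. Half-maximal inhibitory concentrations were fitted by non-linear regression in Prism. Values are expressed in log10 nM as the mean of three passages × two wells.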

[2] = tested on: murine gastric organoid WNT-activated (Apc fl/fl; Tp53 R172H)
How it was run: as §1

[3] = tested on: murine normal gastric organoid
How it was run: as §1

[4] = tested on: murine gastric organoid RAS-activated (Kras G12D; Tp53 R172H)
How it was run: as §1

SMILES | IC50 (log10 nM) [1] | IC50 (log10 nM) [2] | IC50 (log10 nM) [3] | IC50 (log10 nM) [4]
N[C@@H](Cc1ccc(N(CCCl)CCCl)cc1)C(=O)O [Melphalan] | 3.34 | 2.26 | 3.09 | 3.27
Cc1ccc(C(=O)Nc2ccc(CN3CCN(C)CC3)c(C(F)(F)F)c2)cc1C#Cc1cnc2cccnn12 [Ponatinib] | 3.08 | 1.71 | 3.04 | 3.27
COc1cccc2c1C(=O)c1c(O)c3c(c(O)c1C2=O)C[C@@](O)(C(C)=O)C[C@@H]3O[C@H]1C[C@H](N)[C@H](O)[C@H](C)O1 [Daunorubicin hydrochloride] | 1.77 | 1.73 | 1.56 | 1.6
Nc1nc(Cl)nc2c1ncn2[C@H]1C[C@H](O)[C@@H](CO)O1 [Cladribine] | 3.04 | 3.27 | 3.19 | 3.08
COC1=CC(c2cc3ccccc3[nH]2)=N/C1=C\c1[nH]c(C)cc1C [Obatoclax] | 3.06 | 2.26 | 2.31 | 2.81
Cn1nccc1Nc1nccc(-c2ccn([C@H](CO)c3ccc(Cl)c(F)c3)c(=O)c2)n1 [GDC-0994] | 3.23 | 2.88 | 3.71 | 4.35
Cc1cc(C)c(/C=C2\C(=O)Nc3ccccc32)[nH]1 [SU 5416] | 4.33 | 3.77 | 4.03 | 4.36
CN(C)C/C=C/C(=O)Nc1cc2c(Nc3ccc(F)c(Cl)c3)ncnc2cc1O[C@H]1CCOC1 [Afatinib] | 1.95 | 1.27 | 1.55 | 3.6

From the supplement of paper PMC9549728
